Ends that are not written are not given here.
Molecular target: T1, full-length AimR (wild-type) (Bacillus phage SPbeta, UniProt O64094)
T1 construct: 6xHis (C); made in house; host or cells: E. coli BL21 (DE3)
Test: Isothermal titration calorimetry (ITC), AimP vs wild-type AimR
Set-up: species or system Bacillus subtilis SPbeta phage
Details: wild-type full-length AimR 10–20 μM in cell, AimP 200–500 μM in syringe; 20 mM Tris-HCl (pH 8.0), 150 mM NaCl; 25°C; MicroCal iTC200; read-out: Kd (dissociation constant) for AimP binding
Method: DNA sequence encoding full-length AimR from Bacillus subtilis SPbeta phage was cloned into the pET-28a vector with a C-terminal 6×His-tag. The construct was introduced into E.coli BL21 (DE3) cells. The recombinant strains were cultured in LB medium at 37°C until the OD600 reached 0.8. After 16 h of induction with 0.5 mM IPTG at 16°C, the cells were harvested by centrifugation at 5, 000 rpm for 30 min at 4°C. The pelleted cells were then resuspended in the lysis buffer containing 50 mM Tris-HCl (pH 8.0) and 150 mM NaCl, and subsequently lysed by ultrasonication. The lysate was then centrifuged at 17,000 rpm for 30 min at 4°C. Protein purification was carried out following the routine procedure (Jiang et al., 2017). Briefly, the supernatant was loaded onto a Ni-NTA column (Qiagen). The target protein was eluted with 50 mM Tris-HCl (pH 8.0) containing 150 mM NaCl and 250 mM imidazole. The fractions containing purified protein were pooled, concentrated to 0.5 ml and loaded onto a Superdex200 increase column (GE Healthcare) equilibrated with buffer containing 20 mM Tris-HCl (pH 8.0) and 150 mM NaCl. All the AimR mutant proteins were purified following the same protocol.
ITC experiments were performed using a MicroCal iTC200 instrument (Malvern Instruments Ltd.). […] The resulting isotherms were recorded and fitted with Origin software (OriginLab).

T1 sequence (O64094 whole entry): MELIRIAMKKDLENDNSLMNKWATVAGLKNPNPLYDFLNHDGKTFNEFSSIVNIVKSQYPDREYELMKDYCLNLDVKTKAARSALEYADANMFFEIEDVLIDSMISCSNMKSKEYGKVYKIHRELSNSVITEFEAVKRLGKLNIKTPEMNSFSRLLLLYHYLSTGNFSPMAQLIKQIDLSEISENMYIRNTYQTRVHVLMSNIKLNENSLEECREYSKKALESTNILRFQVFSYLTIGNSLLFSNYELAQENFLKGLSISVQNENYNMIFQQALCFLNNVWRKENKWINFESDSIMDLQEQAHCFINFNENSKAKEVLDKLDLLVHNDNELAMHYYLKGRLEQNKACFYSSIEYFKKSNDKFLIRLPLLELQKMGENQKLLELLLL

Q: GMPRGA [AimP] was tested. Which Kd did it give?
A: Its Kd is 0.04 µM.

From paper PMC6340889, “Structural basis of AimP signaling molecule recognition by AimR in Spbeta group of bacteriophages” (Protein & Cell, 2018)
